One assay concerns MED1-AR complex. Put plainly: Immunoprecipitation of endogenous MED1-AR complex. Type of assay: cell-based, human. As to conditions: VCaP and LNCaP nuclear extracts, 100 nM THZ1, 6 h. The procedure:
For endogenous immunoprecipitation experiments, nuclear extracts were obtained from VCaP and LNCaP cells using NE-PER nuclear extraction kit (Thermo Scientific, 78835). Nuclear pellet was then lysed in IP buffer (20 mM Tris pH7.5, 150 mM NaCl, 1% Triton-X 100, Protease/Phosphatase Inhibitor) by sonication. Nuclear lysates (0.35-1.0 mg) were pre-cleaned by incubation with protein G Dynabeads (Life Technologies) for 1 h on a rotator at 4° C. 5 μg antibody was added to the pre-cleared lysates and incubated on a rotator at 4° C. overnight. Protein G Dynabeads were then added for 1 h. Beads were washed twice in IP buffer, containing 300 mM NaCl, and resuspended in 40 μL of 2× loading buffer and boiled at 95° C. for […] for separation of the protein and beads. Samples were then analyzed by SDS-PAGE and western blotting as described above.

For assay [1], the system named is enzalutamide resistant PCa cell lines. Put plainly: Enzalutamide resistant PCa cells: immunoblot and colony formation. In kind it is cell-based, human. How it is done:
Prostate parental cell lines used in this study were obtained from ATCC, LNCaP-AR cells were a gift from Dr. Charles Sawyers (Memorial Sloan-Kettering Cancer Center, New York, NY), and LNCaP AR-KO cells were a gift from Dr. Dean Tang (Roswell Park Cancer Institute, Buffalo, NY). LNCaP, LNCaP-AR, 22RV1, LAPC4, DU145, PC3, and LNCaP AR-KO prostate cancer cell lines were grown in RPMI 1640 (Gibco, 11875093), and VCaP prostate cancer cell line was grown in DMEM with Glutamax (Gibco, 21013024). The medium was supplemented with 10% Fetal Bovine Serum (FBS) (HYC, SH30910.03) and 1% Penicillin Streptomycin Solution (Invitrogen, 15140122), hereto referred to as “complete media.” The immortalized benign prostate cell line RWPE-1 was grown in keratinocyte media with supplements (Thermo Fisher Scientific, 17005042). LNCaP-AR and VCaP enzalutamide-resistant cell lines were derived from enzalutamide-resistant PCa tumor xenograft as described previously. LNCaP and LAPC4 enzalutamide-resistant cell lines were generated by culturing the cells in presence of 20 μM enzalutamide for 3-4 months in vitro. Polyclonal pools of enzalutamide-resistant cells were cultured and maintained in media containing enzalutamide throughout. All experiments for enzalutamide resistant pools were done in presence of enzalutamide throughout the remainder of all experiments with these cells. The cell lines were tested negative for mycoplasma contamination and maintained in a humidified incubator at 37° C. and 5% CO2.
For the long-term colony formation assay, 10,000-50,000 cells/well in six-well plates (n=3) were seeded and treated with the required drugs/compounds or vehicle for 14 days. Media was refreshed every 4-5 days. Colonies were fixed and stained using 0.5% (w/v) crystal violet (Sigma, C0775) in 20% (v/v) methanol for 30 min, washed with distilled deionized water, and air-dried. To quantify staining, we washed the stained wells with 500 μL 10% acetic acid and using colorimetric assays determined the absorbance at 590 nm using a spectrophotometer (Synergy HT, BioTek Instruments, Vermont-USA).
Cell lysates were prepared with RIPA buffer (Boston Bioproducts, BP-115DG)-10 mM Tris-HCl pH 7.5, 1 mM EDTA, 400 mM NaCl, 0.5% NP-40 and 1 mM DTT, supplemented with protease inhibitor cocktail (Pierce, A32965) and phosphatase inhibitor (Thermo, 1861280). For immunoblotting 200 μg total protein extract was boiled in sample buffer and 15-25 μg aliquots were separated by SDS-PAGE and transferred onto Polyvinylidene Difluoride membrane (GE Healthcare, IPVH00010). The membrane was incubated for one hour in blocking buffer [Tris-buffered saline, 0.1% Tween (TBS-T), 5% nonfat dry milk followed by overnight incubation on a rocker at 4° C. with the primary antibody. […]

Assay [2] relates to AR-negative DU145 xenografts. Put plainly: DU145 mouse xenograft. Type of assay: in vivo. Particulars: 10 mg/kg b.i.d., four weeks. How it is done: In vivo efficacy studies were performed in accordance with protocols approved by the Institutional Animal Care and Use Committee (IACUC) at the University of Pennsylvania and in compliance with all regulatory standards. Four to five-week-old male NOD SCID gamma mice (Jackson Lab, 005557) were procured from Jackson Laboratory. In the VCaP experiment, 2×10^6 VCaP prostate cancer cells suspended in 80 μL of RPMI-1640 with 50% Matrigel (BD Biosciences) were implanted subcutaneously into the dorsal flank of the mice. The animals were castrated when the tumor volumes reached approximately 150 mm^3. […] Tumor growth was recorded using digital calipers and tumor volumes were estimated using the formula (π/6) (L×W^2), where L=length and W=width of tumor. Body weight during the study was also monitored. At the end of the treatment regimen the mice were sacrificed and were extracted for further analysis.
Xenograft tumor pieces were fixed in 4% of formaldehyde for 48 h and paraffin embedded. Paraffin embedded sections from the tumors of treated and untreated mice were deparaffinized, rehydrated and subjected to epitope retrieval stained with a phospho-MED1 antibody (1:4000/1:2000), anti-PSA antibody (1:1000), anti-Ki67 (1:500), or anti-cleaved caspase3 antibody (1:1000) followed by peroxidase-based detection and counterstaining with hematoxylin using the Leica Bond Rxm system. Photographs were taken on a Leica DMI6000B inverted light and fluorescent microscope with a 20× objective. images were assessed and quantified in ImageJ.

Results on one compound are retold here after patent US12678438B2, “Treatment of cancer with CDK inhibitors” (THE TRUSTEES OF THE UNIVERSITY OF PENNSYLVANIA, priority 2019, dated 2026).

With `CN(C)C/C=C/C(=O)Nc1ccc(C(=O)Nc2cccc(Nc3ncc(Cl)c(-c4c[nH]c5ccccc45)n3)c2)cc1` [THZ1], in the assay on MED1-AR complex, the “endogenous MED1-AR complex formation” value is “loss of endogenous MED1-AR complex formation”. Moreover, in assay [1] (200 nM THZ1, 24 h), the PSA result is listed as “reduced PSA”; the “apoptosis (cleaved PARP, cleaved caspase-3)” value was “increased apoptosis”; the p-MED1 entry is recorded as “loss of p-MED1”. The “growth (colony formation)” value in assay [1] (enzalutamide plus 50 nM THZ1) is on record as “growth inhibition”. In assay [2] (vs vehicle), the “tumor Ki-67” value is given as “lower Ki-67”, the tumor apoptosis entry is listed as “increased apoptosis” and the “tumor p-MED1 levels” value was “reduced p-MED1 levels”. Moreover, the tumor growth entry in assay [2] (castrated mice) is listed as “tumor growth inhibition”.
